One molecule from ChEMBL document CHEMBL5143655, “Synthesis and biological evaluation of 1,2,4-triazole derivatives as potential Nrf2 activators for the treatment of cerebral ischemic injury” (Eur J Med Chem, 2022) can be followed below.

Data set [1] in a line: Plasma protein binding in human plasma at 10 uM incubated for 6 hrs by LC-MS/MS based equilibrium dialysis method. Type of data set: ADME, cell-free. Conditions: read-out: PPB (converted). Background: In equilibrium dialysis free small molecules cross a membrane that holds back macromolecules.
Data set [2] in a line: Cytotoxicity against human HaCaT cells assessed as reduction in cell viability by MTT assay. It counts as toxicity, cell-based. A general note: Formazan colour is commonly taken as a measure of viable cells.
Data set [3] can be described thus: Cytotoxicity against rat PC-12 cells assessed as reduction in cell viability by MTT assay. It counts as toxicity, cell-based.
Data set [4] is described as follows: Metabolic stability in human plasma assessed as parent compound remaining at 200 uM measured after 15 min by LC-MS/MS analysis relative to control. It counts as ADME, cell-free. Particulars: read-out: Stability.
Data set [5] in a line: Metabolic stability in human plasma assessed as half life at 200 uM by LC-MS/MS analysis relative to control. Type of data set: ADME, cell-free.
A short description of data set [6]: Acute toxicity in BALB/c mouse assessed as survival rate at 175 mg/kg, ip measured after 7 days. It counts as organism-based. Conditions: in vivo, 168 h, time 7 day.
A short description of data set [7]: Tmax in Sprague-Dawley rat at 5 mg/kg, ip measured upto 24 hrs by LC-MS/MS analysis. Type of data set: ADME, organism-based. Conditions: in vivo.
A short description of data set [8]: Cmax in Sprague-Dawley rat at 5 mg/kg, iv measured upto 24 hrs by LC-MS/MS analysis. Type of data set: ADME, organism-based. Also noted: dose 5 mg/kg, time < 24 hrs, route iv. Conditions: in vivo.
The nature of data set [9]: Bioavailability in Sprague-Dawley rat at 5 mg/kg, ip measured upto 24 hrs by LC-MS/MS analysis. It counts as ADME, organism-based. Particulars: in vivo.
Data set [10] is described as follows: Half life in Sprague-Dawley rat at 5 mg/kg, ip measured upto 24 hrs by LC-MS/MS analysis. Type of data set: ADME, organism-based. Conditions: in vivo.
Data set [11] is described as follows: Clearence in Sprague-Dawley rat at 5 mg/kg, iv measured upto 24 hrs by LC-MS/MS analysis. It counts as ADME, organism-based. Particulars: in vivo.
Data set [12] has as its system Rattus norvegicus. Put plainly: Neuroprotective activity in Sprague-Dawley rat model of middle cerebral artery occlusion-induced ischemia-reperfusion injury assessed as decrease in neurological score at 3 mg/kg, ip preincubated for 1 hrs followed by MCAO operation and further incubated with compound for 4 hrs after reperfusion. It counts as functional. Conditions: time 5 hrs.

Data set [13] has as its system Rattus norvegicus. Put plainly: Neuroprotective activity in Sprague-Dawley rat model of middle cerebral artery occlusion-induced ischemia-reperfusion injury assessed as decrease in cerebral infarct volume at 3 mg/kg, ip preincubated for 1 hrs followed by MCAO operation and further incubated with compound for 4 hrs after reperfusion by TTC staining based assay. It counts as functional. On the set-up: scale not given: the % may be the effect or the level left. Particulars: time 5 hrs.

Data set [14] deals with Rattus norvegicus. Put plainly: Neuroprotective activity in Sprague-Dawley rat model of middle cerebral artery occlusion-induced ischemia-reperfusion injury assessed as decrease in cerebral infarct volume at 10 mg/kg, ip preincubated for 1 hrs followed by MCAO operation and further incubated with compound for 4 hrs after reperfusion by TTC staining based assay. Also noted: scale not given: the % may be the effect or the level left. Type of data set: functional. Conditions: time 5 hrs.

For data set [15], the system named is Rattus norvegicus. Put plainly: Neuroprotective activity in Sprague-Dawley rat model of middle cerebral artery occlusion-induced ischemia-reperfusion injury assessed as decrease in cerebral infarct volume at 30 mg/kg, ip preincubated for 1 hrs followed by MCAO operation and further incubated with compound for 4 hrs after reperfusion by TTC staining based assay. Type of data set: functional. Also noted: scale not given: the % may be the effect or the level left. Conditions: time 5 hrs.

Data set [16] has as its system PC-12. Put plainly: Neuroprotective activity against SNP-induced apoptotic rat PC-12 cells assessed as restoration of cell number at 10 uM preincubated for 2 hrs followed by SNP stimulation for 24 hrs by Hoechst 33258 staining based fluorescence microscopic analysis. Type of data set: functional.
Data set [17] relates to PC-12. Kind of data set: Neuroprotective activity against SNP-induced apoptotic rat PC-12 cells assessed as restoration of cell morphology at 10 uM preincubated for 2 hrs followed by SNP stimulation for 24 hrs by Hoechst 33258 staining based fluorescence microscopic analysis. Type of data set: functional.
The subject of data set [18] is PC-12. Put plainly: Neuroprotective activity against SNP-induced oxidative stress in rat PC-12 cells assessed as inhibition of ROS accumulation at 10 uM preincubated for 2 hrs followed by SNP stimulation for 24 hrs by DCFH-DA staining based fluorescence microscopic analysis. It counts as functional, cell-based.
The test system of data set [19] is PC-12. Kind of data set: Cytoprotective activity against SNP - induced oxidative stress in rat PC-12 cells assessed as restoration of mitochondrial membrane potential at 10 uM preincubated for 2 hrs followed by SNP stimulation for 24 hrs by JC-1 staining based fluorescence microscopic analysis. It counts as functional, cell-based.
Data set [20] concerns the target T1, Nuclear factor erythroid 2-related factor 2 (Rattus norvegicus) (UniProt O54968).
T1 sequence (whole entry): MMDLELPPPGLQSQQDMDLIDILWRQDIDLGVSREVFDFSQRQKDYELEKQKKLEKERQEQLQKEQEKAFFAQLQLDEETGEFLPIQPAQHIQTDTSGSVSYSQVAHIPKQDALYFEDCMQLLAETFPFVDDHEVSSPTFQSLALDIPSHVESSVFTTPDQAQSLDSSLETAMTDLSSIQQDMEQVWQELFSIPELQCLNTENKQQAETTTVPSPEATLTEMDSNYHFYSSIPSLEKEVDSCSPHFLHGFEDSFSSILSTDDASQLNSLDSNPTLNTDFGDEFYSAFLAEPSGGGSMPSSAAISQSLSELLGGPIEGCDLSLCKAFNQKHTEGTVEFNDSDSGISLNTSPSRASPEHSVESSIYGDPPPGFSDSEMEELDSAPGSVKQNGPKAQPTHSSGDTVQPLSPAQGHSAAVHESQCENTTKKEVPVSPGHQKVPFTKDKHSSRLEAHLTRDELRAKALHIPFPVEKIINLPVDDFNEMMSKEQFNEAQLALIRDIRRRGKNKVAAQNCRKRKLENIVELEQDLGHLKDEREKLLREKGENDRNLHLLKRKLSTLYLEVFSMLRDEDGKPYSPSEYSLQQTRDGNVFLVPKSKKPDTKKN
Kind of data set: Activation of Nrf2 pathway in rat PC-12 cells assessed as Nrf2 accumulation in nucleus measured after 3 hrs by Western blot analysis. It counts as cell-based. Particulars: filed as activator, dose 2.5-10 µM, DDE = dose-dependent effect. On the technique in general: Immunoblotting shows a protein as a band on a membrane.

The target of data set [21] is T1, Nuclear factor erythroid 2-related factor 2 (Rattus norvegicus). Kind of data set: Activation of Nrf2 pathway in rat PC-12 cells assessed as increase in HO-1 level at 2.5 to 10 uM measured after 3 hrs by Western blot analysis. Type of data set: cell-based. Conditions: filed as activator, dose 2.5-10 µM.

The source made the active and inactive calls.

The IC50 is the midpoint of a concentration-inhibition curve. What is called half-life is the time needed for the level to fall by half in the phase considered. As usually defined, the Tmax is the time at which the peak concentration occurs. Broadly, the Cmax is the maximum level reached in the sampled fluid or tissue. The term bioavailability denotes the share of a dose that reaches the circulation, judged against a reference dose that is usually intravenous. Consider `Cc1cc(C)cc(-n2nc(-c3ccc(C(F)(F)F)cc3O)nc2-c2ccccc2O)c1`, for which the fraction unbound at 6 h, 10 µM in data set [1] is 0.0006. Further, the IC50 amounted to 127 µM in data set [2] and 263 µM in data set [3]. Moreover, in [4], the remaining at 0.25 h, 200 µM turned out to be 95.8%. Further, the half-life at 200 µM in [5] is greater than 8.82 h. For the same molecule, the Activity entry was “Non-Toxic” in [6]; 1.87 in the data set with Rattus norvegicus [12]; 16.37% in the data set with Rattus norvegicus [13]; 14.49% in the data set on Rattus norvegicus [14]; 12.23% in the data set on Rattus norvegicus [15]; “Dde” in data set [20]. The Tmax in [7] is 2 h. The molecule further registered a Cmax in [8] of 6910 ng/mL. The bioavailability in data set [9] is 28.8%. The same molecule gave a half-life in [10] of 12.8 h. Further, the CL in data set [11] is given as 0.0005 (mg/kg)/(ng/ml)/hr. For the same molecule, the outcome (in the data set on PC-12 [16]; with PC-12 [17]; in the data set with PC-12 [18]; in the data set with PC-12 [19]; in data set [21]) was Active.
